Results as given in US5658924A, “1,8-naphthyridin-2-one derivative and use thereof” (The Green Cross Corporation, priority 1995, dated 1997).

Legend:
[1] = test system: PDE isozyme I; assay: Inhibition of PDE (isozyme I); type: biochemical; conditions: pig ventricular muscle, [3H]-cAMP substrate; read-out: PDE Inhibitory activity (IC5 :μM), PDE isozyme I
Protocol: (§1) Inhibition of PDE by 1,8-naphthyridin-2-one derivative
(§2) The centrifugation supernatant of the homogenate of pig ventricular muscle was separated into isozyme by ortho-(diethylaminoethyl)-cellulose chromatography and used as an enzyme source. Respective isozymes were confirmed by the reaction with respective activity regulators. [^3 H]-cAMP was used as a substrate and the reaction was carried out in the presence of 5'-nucleotidase. A sample was dissolved in dimethyl sulfoxide and added to the reaction mixture. [^3 H]-5'-AMP produced by PDE was decomposed into [^3 H]-adenosine by 5'-nucleotidase. An anion exchange resin was added to adsorb the unreacted [^3 H]-cAMP, whereby the reaction was stopped. The [^3 H]-adenosine radioactivity of the supernatant was determined, based on which the PDE inhibitory action was calculated.

[2] = test system: histamine-induced contraction of bronchial specimen; assay: Suppression of histamine-induced contraction of bronchial specimen extracted from guinea pig; set-up: species or system guinea pig (male Hartley); conditions: histamine 3 μM
Protocol: (§3) Suppression of histamine or leukotriene D4 -induced contraction of bronchial specimen extracted from guinea pig
(§4) Male Hartley guinea pigs weighing 250-450 g were fainted by hitting in the head and exsanguinated to death. The trachea was removed and ring specimens were prepared by a conventional method. The specimens were kept at 37° C. and suspended in a Krebs-Ringer solution (10 ml) aerated with a 95% O2 -5% CO2 mixed gas, and isometric tension was measured. The specimens were contracted with histamine (3 μM) or leukotriene D4 (1 nM). When the reaction became stable, a drug dissolved in dimethyl sulfoxide was added to the Kreb's Ringer solution. The relaxation ratio was calculated based on the base line before the contraction, which was taken as 100% relaxation.

[3] = test system: endothelin; assay: Prevention of lethal effect on mice induced by intravenous administration of endothelin; type: in vivo, mice (male ICR)
Protocol: Prevention of lethal effect on mice induced by intravenous administration of endothelin
Male ICR mice (6-7 weeks of age) were used without anesthetization. A solvent (physiological saline or 0.5% carboxymethylcellulose in physiological saline) or a medium, in which a drug had been dissolved or suspended, was administered in a dose of 50 μl /10 g body weight via the tail vein of the mice. Five minutes later, 5 nmol/kg of endothelin (Peptide Institute) dissolved in the same amount of a solvent was intravenously administered. The mice were monitored for 60 minutes after the endothelin administration and the number of dead animals and the latency (seconds) until death were determined. […] The test results of Compound 2 are representatively shown.

[4] = test system: endothelin; assay: Effect against endothelin-induced pressor activity in rats; type: in vivo, rats (male SD); conditions: 10 mg/kg i.v., 10 min after endothelin 1 nmol/kg; blood pressure 20 min after endothelin
Protocol: Effect against endothelin-induced pressor activity in rats
Male SD rats (6 to 8 weeks of age) were anesthetized with sodium pentobarbital (60 mg/kg, i.p.), and a polyethylene catheter was inserted in the left carotid artery, which was connected to a pressure transducer (TP-400T, manufactured by Nihon Koden), and the blood pressure was measured via a polygraph (RM-6000 manufactured by Nihon Koden).
The pressor activity was induced by administering endothelin (1 nmol/kg) dissolved in a solvent, from the femoral vein. With regard to the animals ascertained to have increased blood pressure, a solvent or a medium, in which a drug had been dissolved or suspended, was administered in a dose of 1 ml/kg from the femoral vein of the rats 10 minutes after the endothelin administration, and the pressor activity was observed thereafter. The representative test results of Compound 2 are shown.
The results are shown in Table 14. in the Table, changes in blood pressure 20 minutes after the endothelin administration was compared with the value obtained before the endothelin administration.

[5] = test system: PDE isozyme IV; assay: Inhibition of PDE (isozyme IV); type: biochemical; conditions: pig ventricular muscle, [3H]-cAMP substrate; read-out: PDE Inhibitory activity (IC5 :μM), PDE isozyme IV
Protocol: as §1, §2

[6] = biological target: T1, PDE isozyme II (Sus scrofa, UniProt F1SUV3); assay: Inhibition of PDE (isozyme II); type: biochemical; conditions: pig ventricular muscle, [3H]-cAMP substrate; read-out: PDE Inhibitory activity (IC5 :μM), PDE isozyme II
T1 construct: centrifugation supernatant of the homogenate of pig ventricular muscle; from tissue; host or cells: pig ventricular muscle, supernatant of homogenate, DEAE-cellulose fraction
T1 sequence (F1SUV3 1-945): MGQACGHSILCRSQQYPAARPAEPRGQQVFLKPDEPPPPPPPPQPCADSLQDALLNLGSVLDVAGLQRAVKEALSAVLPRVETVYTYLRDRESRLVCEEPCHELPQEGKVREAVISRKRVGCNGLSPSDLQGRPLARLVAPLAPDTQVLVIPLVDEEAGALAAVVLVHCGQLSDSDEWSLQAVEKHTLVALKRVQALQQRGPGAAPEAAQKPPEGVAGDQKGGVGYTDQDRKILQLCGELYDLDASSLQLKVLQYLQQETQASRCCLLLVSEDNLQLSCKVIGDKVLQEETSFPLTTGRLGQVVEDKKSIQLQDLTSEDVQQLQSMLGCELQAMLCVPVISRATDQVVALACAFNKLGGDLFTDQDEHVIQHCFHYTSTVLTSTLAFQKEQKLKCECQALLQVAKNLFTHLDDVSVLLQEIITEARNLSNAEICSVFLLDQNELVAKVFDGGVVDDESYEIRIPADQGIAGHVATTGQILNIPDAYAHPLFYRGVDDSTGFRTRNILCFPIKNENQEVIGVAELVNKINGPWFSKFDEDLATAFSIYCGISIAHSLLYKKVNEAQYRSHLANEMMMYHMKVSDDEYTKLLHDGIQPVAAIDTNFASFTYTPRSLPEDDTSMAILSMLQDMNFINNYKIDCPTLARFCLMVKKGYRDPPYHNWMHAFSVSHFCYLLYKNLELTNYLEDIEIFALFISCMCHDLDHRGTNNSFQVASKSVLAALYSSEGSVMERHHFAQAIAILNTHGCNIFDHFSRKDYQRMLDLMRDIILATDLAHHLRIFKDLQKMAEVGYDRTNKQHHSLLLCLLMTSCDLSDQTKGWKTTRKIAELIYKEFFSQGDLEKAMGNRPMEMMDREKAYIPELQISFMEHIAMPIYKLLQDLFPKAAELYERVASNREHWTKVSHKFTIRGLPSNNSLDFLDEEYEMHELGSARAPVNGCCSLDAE
Protocol: as §1, §2

[7] = test system: endothelin-induced contraction of extracted pig coronary artery; assay: Suppression of endothelin-induced contraction in extracted pig coronary artery; conditions: 10 μM
Protocol: Suppression of endothelin-induced contraction in extracted pig coronary artery
Rectangular specimens of pig left anterior descendens coronary artery (endothelial cells removed) were used. The specimens were heated to 37° C. and suspended in a Tyrode's solution (10 ml) aerated with a 95% O2 -5% CO2 mixed gas under the resting tension of 1.5 g, and changes in isometric tension were determined. The specimens were contracted with 10 nM endothelin and when the reaction became stable, a drug dissolved in dimethyl sulfoxide was added to the. Tyrode's solution. The relaxation ratio was calculated relative to the base line before the contraction, which was taken as 100% relaxation. The representative test results of Compound 2 (administration concentration: 10 μM) are shown.

[8] = biological target: T2, PDE isozyme III (Sus scrofa, UniProt I3L6S5); assay: Inhibition of PDE (isozyme III); type: biochemical; conditions: pig ventricular muscle, [3H]-cAMP substrate; read-out: PDE Inhibitory activity (IC5 :μM), PDE isozyme III
T2 construct: centrifugation supernatant of the homogenate of pig ventricular muscle; from tissue; host or cells: pig ventricular muscle, supernatant of homogenate, DEAE-cellulose fraction
T2 sequence (I3L6S5 1-1145): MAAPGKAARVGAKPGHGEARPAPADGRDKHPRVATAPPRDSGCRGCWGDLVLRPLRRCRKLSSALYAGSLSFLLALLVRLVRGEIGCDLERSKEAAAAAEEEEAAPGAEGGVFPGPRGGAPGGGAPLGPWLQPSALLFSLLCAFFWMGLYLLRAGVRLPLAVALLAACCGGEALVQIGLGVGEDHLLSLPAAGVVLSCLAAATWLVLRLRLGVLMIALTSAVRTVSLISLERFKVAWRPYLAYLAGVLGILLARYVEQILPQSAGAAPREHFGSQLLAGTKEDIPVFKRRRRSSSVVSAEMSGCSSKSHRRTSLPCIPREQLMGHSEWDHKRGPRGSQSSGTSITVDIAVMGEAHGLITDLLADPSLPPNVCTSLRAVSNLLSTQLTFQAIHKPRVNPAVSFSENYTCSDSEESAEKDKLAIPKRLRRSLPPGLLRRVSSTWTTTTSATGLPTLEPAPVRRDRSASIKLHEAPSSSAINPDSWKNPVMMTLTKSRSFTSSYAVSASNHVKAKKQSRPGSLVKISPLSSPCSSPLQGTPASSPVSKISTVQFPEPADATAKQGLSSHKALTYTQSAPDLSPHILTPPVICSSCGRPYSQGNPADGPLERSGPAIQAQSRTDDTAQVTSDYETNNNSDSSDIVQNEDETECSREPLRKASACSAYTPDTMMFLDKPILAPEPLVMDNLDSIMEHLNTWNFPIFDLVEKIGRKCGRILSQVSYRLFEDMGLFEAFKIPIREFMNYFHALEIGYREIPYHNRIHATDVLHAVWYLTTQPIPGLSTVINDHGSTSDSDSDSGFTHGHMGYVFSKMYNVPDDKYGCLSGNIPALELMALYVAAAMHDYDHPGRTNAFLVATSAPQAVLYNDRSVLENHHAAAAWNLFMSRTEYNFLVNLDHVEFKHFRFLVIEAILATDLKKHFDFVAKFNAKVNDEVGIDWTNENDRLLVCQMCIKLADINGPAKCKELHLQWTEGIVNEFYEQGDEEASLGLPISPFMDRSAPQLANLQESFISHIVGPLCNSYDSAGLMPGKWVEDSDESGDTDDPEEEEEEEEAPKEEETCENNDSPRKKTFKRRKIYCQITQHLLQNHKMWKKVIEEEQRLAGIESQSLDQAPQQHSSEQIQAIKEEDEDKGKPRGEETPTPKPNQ
Protocol: as §1, §2

[9] = Acute toxicity in mice; type: in vivo, mice (ICR); conditions: mouse, in vivo, po, mice; estimated; read-out: oral lethal dose 50% (LD50)
Protocol: (§5) Acute toxicity of 1,8-naphthyridin-2-one derivative in mice
(§6) ICR mice (6-8 weeks of age, 7 per group) were fasted overnight and used for the experiment. A solvent (0.5% aqueous solution of carboxymethylcellulose) or a medium, in which a drug had been dissolved or suspended, was orally administered to mice in a dose of 0.1 ml/10 g body weight, and life or death of the animals was monitored for 72 hours after the administration. The representative test results of Compound 2 (300 mg/kg p.o.) are shown.

[10] = test system: mice; assay: Acute toxicity in mice; type: in vivo, mice (ICR); conditions: 300 mg/kg p.o., 72 hours
Protocol: as §5, §6

[11] = test system: leukotriene D4-induced contraction of bronchial specimen; assay: Suppression of leukotriene D4-induced contraction of bronchial specimen extracted from guinea pig; set-up: species or system guinea pig (male Hartley); conditions: leukotriene D4 1 nM
Protocol: as §3, §4

Structure (SMILES) | IC50 [1] | Suppression of contraction % (HS) ([2]; 10 μM) | Prevention of death: suppression of death (%) ([3]; 30 mg/kg i.v., 5 min before endothelin 5 nmol/kg i.v., 60 min monitoring) | Prevention of death: prolongation of latency (%) ([3]; 30 mg/kg i.v., 5 min before endothelin 5 nmol/kg i.v., ** P<0.01 relative to control, Tukey) | suppression of the death caused by endothelin and prolonging action of the latency until death ([3]; i.v.) | Endothelin-induced pressor activity, Suppression % [4] | IC50 [5] | IC50 [6] | suppressive action on the endothelin-induced contraction [7] | Suppression % of endothelin-induced contraction ([7]; contracted with 10 nM endothelin, endothelial cells removed) | IC50 [8] | LD50 at 72 h [9] | Death (number of animals) ([10]; 7 animals administered) | acute toxicity test result [10] | Suppression of contraction % (LT) ([11]; 10 μM) | Suppression of contraction % (LT) ([11]; 1 μM) | Suppression of contraction % (HS) ([2]; 1 μM)
Cn1c(=O)c(-c2ccccc2)cc2cccnc21 [Compound 2] | 29 µM | 93% | 52% | 305% | showed suppression of the death caused by endothelin and a prolonging action of the latency until death | 38.5% | 1.6 µM | 39 µM | showed evident suppressive action | 74% | > 50 µM | ≥ 300 mg/kg | 0 | tested negative in the acute toxicity test |  |  | 
C=CCn1c(=O)c(-c2ccc(OC)cc2)cc2cccnc21 [Compound 4] | 49 µM | 100% |  |  |  |  | 0.38 µM | > 50 µM |  |  | 44 µM |  |  |  | 100% |  | 
CC(C)CCn1c(=O)c(-c2ccc(Cl)cc2)cc2cccnc21 [Compound 5] | > 50 µM |  |  |  |  |  | 0.35 µM | > 50 µM |  |  | > 50 µM |  |  |  |  |  | 
O=c1c(-c2ccccn2)cc2cccnc2n1CC1CC1 [Compound 3] | 66 µM |  |  |  |  |  | 1.4 µM | 18 µM |  |  | 80 µM |  |  |  |  | 100% | 60%
Cc1ccccc1-c1cc2cccnc2n(Cc2ccccc2F)c1=O [Compound 1, 1-(2-fluorobenzyl)-3-(2-methylphenyl)-1,8-naphthyridin-2(1H)-one] | > 50 µM | 100% |  |  |  |  | 0.4 µM | > 50 µM |  |  | > 50 µM |  |  |  | 88% |  | 
